Experimental data published in patent publication US20240269139A1, “COMPOUNDS FOR TARGETED PROTEIN DEGRADATION OF KINASES” (DANA-FARBER CANCER INSTITUTE, INC., priority 2020, published 2024).

Tested on: protein kinases (human kinome)
Format: cell-based
Details: for kinases the bifunctional compound degrades: as stated for the structure in the embodiments; for Kinase hits: kinases significantly downregulated vs DMSO (fold change cutoff −1.25, P-value<0.01), ≤8 h, 0.1-5 μM degrader, 7 cell lines; for Total no. kinase hits: number of degraded kinases per library compound
Excerpt: Although development of targeted protein degraders requires a POI binder, among already-liganded proteins such as kinases, it was hypothesized that different targets would have a different propensity for current approaches to degrader-mediated destruction, which was termed ‘degradability’. […] It was rationalized that the probability of identifying the same kinase as a false positive in multiple treatments is low, therefore this analysis served to also assess the robustness of our data and subsequent interpretations. […] Overall, 62 protein kinases were degraded in more than 10 independent treatments, and remarkably, 9 of these (CDK4, AURKA, FER, WEE1, BLK. LIMK2, CDK6, GAK, LIMK1) were each degraded in at least 40 of the 154 independent treatments, emphasizing their predisposition to induced degradation (FIG. 1G; Appendix I).
Next, the frequency of degradation assessment was corrected for over-representation of molecules in the full dataset by omitting replicate profiling of compounds under different experimental conditions, to remove any bias. […] Unsurprisingly, the top degradable kinases mirror those from the previous analysis (CDK4, AURKA, FER, WEE1, BLK), confirming that in sufficiently large datasets, even with over-representation of certain molecules, frequency of degradation is a good measure of general tractability.

With `CNC(=O)c1ccccc1Nc1cc(Nc2ccc(N3CCN(CCCCCCCCNc4cccc5c4C(=O)N(C4CCC(=O)NC4=O)C5=O)CC3)cc2OC)ncc1C(F)(F)F` (centres unmarked) [MFH-5-116-1] the “kinases the bifunctional compound degrades” value was “AURKA, NUAK1, PTK2B, RPS6KA1, RPS6KA3, STK33, and WEE1”, the Kinase hits was “AURKA, NUAK1, PTK2B, KPS6KA1, RPS6KA3, STK33, WEE1” and the “Total no. kinase hits” value was 7.
`CC(C)S(=O)(=O)c1ccccc1Nc1nc(Nc2ccc(N3CCN(CCOCCOCCNC(=O)CNc4ccc5c(c4)C(=O)N(C4CCC(=O)NC4=O)C5=O)CC3)cc2)ncc1Cl` (centres unmarked) [LT2-49, N-(2-(2-(2-(4-(4-((5-chloro-4-((2-(isopropylsulfonyl)phenyl)amino)pyrimidin-2-yl)amino)phenyl)piperazin-1-yl)ethoxy)ethoxy)ethyl)-2-((2-(2,6-dioxopiperidin-3-yl)-1,3-dioxoisoindolin-5-yl)amino)acetamide] was tested, and the “kinases the bifunctional compound degrades” value was “CDK4, AURKA, WEE1, BLK, FER, CDK6, LIMK2, AAK1, CDK5, CDK2, ITK, CDK17, LCK, PTK2B, CDK9, CDK7, CDK13, PRKAA1, CDK12, BMP2K, and STK10”, the Kinase hits was “CDK4, AURKA, WEE1, BLK, FER, CDK6, LIMK2, AAK1, CDK5, CDK2, ITK, CDK17, LCK, PTK2B, CDK9, CDK7, CDK13, PRKAA1, CDK12, BMP2K, STK10” and the “Total no. kinase hits” value was 21.
In the case of `O=C1CCC(N2C(=O)c3cccc(NCCCCCCCCN4CCC(NC(=O)c5[nH]ncc5NC(=O)c5c(Cl)cccc5Cl)CC4)c3C2=O)C(=O)N1` (centres unmarked) [MFH-5-126-1], the “kinases the bifunctional compound degrades” value is reported as “AURKA, BUB1, BUB1B, CDK13, CDK14, CDK17, CDK4, CDK9, CHEK1, CLK1, CSNK1A1, CSNK1D, DAPK1, ERN1, GSK3A, GSK3B, MAP3K1, NUAK1, PIK3CG, PIM2, PLK1, RIOK2, STK17A, STK7B, TTK, UHMK1, and WEE1”, the Kinase hits is reported as “AURKA, BUB1, BUB1B, CDK13, CDK14, CDK17, CDK4, CDK9, CHEK1, CLK1, CSNK1A1, CSNK1D, DAPK1, ERN1, GSK3A, GSK3B, MAP3K1, NUAK1, PIK3CG, PIM2, PLK1, RIOK2, STK17A, STK17B, TTK, UHMK1, WEE1” and the “Total no. kinase hits” value is reported as 27.
`CC(C)S(=O)(=O)c1ccccc1Nc1nc(Nc2ccc(N3CCN(CCOCCNC(=O)CNc4ccc5c(c4)C(=O)N(C4CCC(=O)NC4=O)C5=O)CC3)cc2)ncc1Cl` (centres unmarked) [SK-3-93] was tested, and the “kinases the bifunctional compound degrades” value was “AAK1, ABL2, AURKA, BLK, BMP2K, CDK12, CDK13, CDK17, CDK2, CDK4, CDK5, CDK6, CDK7, CDK9, FER, GAK, ITK. LCK, LIMK2. PRKAA1, PTK2B, RPS6KA1, SRC, and WEE1”, the Kinase hits was “AAK1, ABL2, AURKA, BLK, BMP2K, CDK12, CDK13, CDK17, CDK2, CDK4, CDK5, CDK6, CDK7, CDK9, FER, GAK, ITK, LCK, LIMK2, PRKAA1, PTK2B, RPS6KA1, SRC, WEE1,” and the “Total no. kinase hits” value was 24.
For `Cc1ncsc1-c1ccc([C@H](C)NC(=O)[C@@H]2C[C@@H](O)CN2C(=O)[C@@H](NC(=O)CCOCCOCCOCCN2CCC(C(=O)Nc3ncc(SCc4ncc(C(C)(C)C)o4)s3)CC2)C(C)(C)C)cc1` [ZZ-1-31B], the Kinase hits was “CDK9, CLK1” and the “Total no. kinase hits” value was 2.
With `C[C@@H]1C[C@@H](O)c2ncnc(N3CCN(C(=O)[C@H](CNCCCCCCCCNC(=O)COc4cccc5c4C(=O)N(C4CCC(=O)NC4=O)C5=O)c4ccc(Cl)cc4)CC3)c21` (some centres unmarked) [INY-02-164] the Kinase hits was “AKT1, AKT2, AKT3, BCKDK, PDK1” and the “Total no. kinase hits” value was 5.
With `CC(=O)c1c(C)c2cnc(Nc3ccc(N4CCN(CC(=O)NCCOCCOCCOCCNc5cccc6c5C(=O)N(C5CCC(=O)NC5=O)C6=O)CC4)cn3)nc2n(C2CCCC2)c1=O` (centres unmarked) [YKL-06-102] the Kinase hits was “CDK4, CDK6, WEE1” and the “Total no. kinase hits” value was 3.
With `Cc1c(NC(=O)c2ccc(C(C)(C)C)cc2)cccc1-c1cn(C)c(=O)c(Nc2ccc(C(=O)N3CCN(CCCCCCNC(=O)COc4cccc5c4C(=O)N(C4CCC(=O)NC4=O)C5=O)CC3)cc2)n1` (centres unmarked) [DD.04.118] the logFC (BTK (Q06187-2), experiment wp055) was −3.263 and the “logFC of BTK (Q06187-2)” value (Experiment wp055) was −3.263.
With `Cc1ncsc1-c1ccc([C@H](C)NC(=O)[C@@H]2C[C@@H](O)CN2C(=O)[C@@H](NC(=O)CCCCCN2CCc3cc(Nc4ncc(C5CC5)c(NCCCNC(=O)C5CCC5)n4)ccc3C2)C(C)(C)C)cc1` [BSJ-05-026] the Kinase hits was “AAK1, GAK, MARK2, MARK3, MARK4, RPS6KB1, SIK2, SIK3, SNRK, STKI7A, STKI7B, ULK1, WEE1” and the “Total no. kinase hits” value was 13.
With `O=C1CCC(N2C(=O)c3cccc(NCCOCCOCCOCCOCCC(=O)Nc4cccc(CN5CCC(NC(=O)c6[nH]ncc6NC(=O)c6c(Cl)cccc6Cl)CC5)c4)c3C2=O)C(=O)N1` (centres unmarked) [FMF-04-147-1] the “kinases the bifunctional compound degrades” value was “CDK11A, CDK9, CLK1, GSK3A, GSK3B, PIK3CG, and SGK3”, the Kinase hits was “CDK11A, CDK9, CLK1, GSK3A, GSK3B, PIK3CG, SGK3” and the “Total no. kinase hits” value was 7.
In the case of `CC(=O)c1c(C)c2cnc(Nc3ccc(N4CCN(CCOCCOCCOCCNC(=O)COc5cccc6c5C(=O)N(C5CCC(=O)NC5=O)C6=O)CC4)cn3)nc2n(C2CCCC2)c1=O` (centres unmarked) [BSJ-03-123], the Kinase hits is reported as “BCKDK, CDK4, CDK6, COQ8A, PDK1, PDK2, PDK3, WEE1” and the “Total no. kinase hits” value is reported as 8.
For `CC(C)(C)c1cc(NC(=O)Nc2ccc(Oc3ccnc(C(=O)NCCOCCOCCNC(=O)CNc4cccc5c4C(=O)N(C4CCC(=O)NC4=O)C5=O)c3)cc2F)n(-c2ccc3ncccc3c2)n1` (centres unmarked) [TL13-178], the “kinases the bifunctional compound degrades” value was “CDK4, LIMK1, MAP3K20, MAPK14, and MAST3”.
For `CNC(=O)c1ccccc1Nc1cc(Nc2ccc(N3CCN(CCOCCOCCNC(=O)CNc4cccc5c4C(=O)N(C4CCC(=O)NC4=O)C5=O)CC3)cc2OC)ncc1C(F)(F)F` (centres unmarked) [MFH-5-103-1], the “kinases the bifunctional compound degrades” value was “AURKA, CDK1O, CDK7, MAPK7, PTK2B, RPS6KA1, RPS6KA3, STK33, and WEE1”, the Kinase hits was “AURKA, CDK10, CDK7, MAPK7, PTK2B, RPS6KA1, RPS6KA3, STK33, WEE1” and the “Total no. kinase hits” value was 9.
`Cc1cnc(Nc2ccc(N3CCN(CCCCCCC(=O)N[C@H](C(=O)N4C[C@H](O)C[C@H]4C(=O)N[C@@H](C)c4ccc(-c5scnc5C)cc4)C(C)(C)C)CC3)cc2)nc1Nc1cccc(S(=O)(=O)NC(C)(C)C)c1` [JWG-123] was tested, and the Kinase hits was “AAK1, CDK16, WEE1, GAK, MARK4, NEK9, RPS6KB1, SIK2, SIK3, SNRK, STKI7A, STK17B” and the “Total no. kinase hits” value was 12.
`Nc1ncnc2c1c(-c1ccc(Oc3ccccc3)cc1)nn2[C@H]1CC[C@H](N2CCN(CCCCCCNC(=O)COc3cccc4c3C(=O)N(C3CCC(=O)NC3=O)C4=O)CC2)CC1` (some centres unmarked) [SB1-G-200] was tested, and the “kinases the bifunctional compound degrades” value was “ABL1, ABL2, BLK, CSNK1E. CSK, FYN, LATS1, LCK, LIMK1, MAP2K5, and SRC”, the Kinase hits was “ABL1, ABL2, BLK, CSNK1E, CSK, FYN, LATS1, LCK, LIMK1, MAP2K5, SRC” and the “Total no. kinase hits” value was 11.
In the case of `Nc1ncnc2c1c(-c1ccc(Oc3ccccc3)cc1)nn2[C@H]1CC[C@H](N2CCN(CCOCCNC(=O)CNc3cccc4c3C(=O)N(C3CCC(=O)NC3=O)C4=O)CC2)CC1` (some centres unmarked) [SB1-G-181], the Kinase hits is reported as “ABL1, ABL2, AURKA, BLK, CSK, CSNK1E, FYN, LATS1, LCK, LIMK1, MAP2K5, SRC” and the “Total no. kinase hits” value is reported as 12.
With `O=C(COc1cccc2c1C(=O)N(C1CCC(=O)NC1=O)C2=O)NCCCCCCCC(=O)NC1(c2ccc(-c3nc4ccn5c(=O)[nH]nc5c4cc3-c3ccccc3)cc2)CCC1` (centres unmarked) [INY-01-140-1] the “kinases the bifunctional compound degrades” value was “PDK1, PDK2, and PDK3”, the Kinase hits was “PDK1, PDK2, PDK3” and the “Total no. kinase hits” value was 3.
